Reference: patent US11352331B2, “Crystal and salt of 4-(naphthalen-1-yl)-4H-1,2,4-triazole compound and preparation method therefor” (MEDSHINE DISCOVERY INC., priority 2017, dated 2022)
Like-named read-outs stand apart in the source and are kept apart here.

How the values were obtained:
human liver cells = assay: Metabolite detection after incubation in human liver cells for 120 minutes (LC-UV-MSn); assay type: in vitro ADME; details: for UV area percentage: 10 μM
Procedure: The objective of this experiment is detect the metabolites of the compounds after incubation in human liver cells for 120 minutes using LC-UV-MS^n (n=1-2). After data collection, MetaboLynx™ software was used to analyze MS and MS^2 data.
After the cells were incubated with the samples for 2 hours, protein was precipitated using acetonitrile containing formic acid and then the mixture was centrifuged. The supernatant was taken out and blow-dried with nitrogen, and then redissolved and injected for analysis.

[1] = Pharmacokinetics in cynomolgus monkeys after IV and PO administration; assay type: in vivo; details: for half-life: read-out: Half-life T1/2 (converted); for Cmax: read-out: Peak concentration Cmax; for MRT inf: read-out: Residence time MRT0-inf; for Tmax: read-out: Time to peak Tmax; for Mutual transformation between the two axially chiral isomers in vivo: circulation system; for Vd: read-out: Apparent volume of distribution Vdss; for clearance: read-out: Clearance rate Cl; for C0: read-out: Initial concentration C0
Procedure: 24 healthy adult male cynomolgus monkeys were divided into 8 groups (there were IV and PO groups for each compound) with 3 animals per group.
An appropriate amount of the samples was weighted and dissolved in a certain amount of DMSO by ultrasound, followed by addition of PEG400 solution to obtain clear solutions (DMSO/PEG400/H2O (5/40/55)) of the compounds to be tested with a concentration of 2 mg/mL for IV administration.
An appropriate amount of the samples was weighted and dissolved in a certain amount of DMSO by ultrasound, followed by addition of 0.5% MC solution to obtain suspensions (DMSO/0.5% MC (5/95)) of the compounds to be tested with a concentration of 2 mg/mL for PO administration.
24 male cynomolgus monkeys were divided into 8 groups with 3 animals per group, and the drugs were administered through IV and PO after the animals had been fasting overnight. The dose for IV administration was 2 mg/kg and the dosing volume was 1 mL/kg; the dose for PO administration was 10 mg/kg and the dosing volume was 5 mL/kg.
In the IV administration groups, approximately 200 μL of blood was collected 0.083, 0.25, 0.5, 1, 2, 4, 6, 8, and 24 hours after administration; the collected blood samples were added into anticoagulation tubes containing K2-EDTA and centrifuged at 3000 rpm for 15 minutes; the plasma was isolated and stored at −80° C. In the PO administration groups, the blood was collected 0.25, 0.5, 1, 2, 4, 6, 8, and 24 hours after administration, and other operations were the same as in the IV administration group. After the plasma samples were pre-treated to precipitate the protein, the drug concentration in the plasma was determined by LC/MS/MS method. The linear range of the analysis method was 20.00-6000 nM. In PO administration group, urine was collected 0-24 hours after administration, and the drug concentration in the urine was determined by LC/MS/MS method. The linear range of the analysis method was 20.00-6000 nM.

[2] = Liver microsomes, Rat; cited from earlier work
[3] = Liver microsomes, Dog; cited from earlier work
[4] = Liver microsomes, Monkey; cited from earlier work
[5] = Liver microsomes, Human; cited from earlier work
Liver cells [6] = details: Rat; cited from earlier work
Liver cells [7] = details: Dog; cited from earlier work
Liver cells [8] = details: Monkey; cited from earlier work
Liver cells [9] = details: Human; cited from earlier work
[10] = human, 0-144 hour, after lesinurad, cited from earlier work
URAT-1 = biological target: T1, URAT-1 (Homo sapiens, UniProt Q96S37); assay: Inhibition of 14C-uric acid uptake in MDCK cells stably transfected with URAT-1 gene; assay type: cell-based; details: MDCK cells stably transfected with URAT-1, substrate 14C-uric acid 50 μM; read-out: IC50 of the inhibitory effect on URAT-1
T1 construct: expressed in transfected cells
T1 sequence (Q96S37 1-553): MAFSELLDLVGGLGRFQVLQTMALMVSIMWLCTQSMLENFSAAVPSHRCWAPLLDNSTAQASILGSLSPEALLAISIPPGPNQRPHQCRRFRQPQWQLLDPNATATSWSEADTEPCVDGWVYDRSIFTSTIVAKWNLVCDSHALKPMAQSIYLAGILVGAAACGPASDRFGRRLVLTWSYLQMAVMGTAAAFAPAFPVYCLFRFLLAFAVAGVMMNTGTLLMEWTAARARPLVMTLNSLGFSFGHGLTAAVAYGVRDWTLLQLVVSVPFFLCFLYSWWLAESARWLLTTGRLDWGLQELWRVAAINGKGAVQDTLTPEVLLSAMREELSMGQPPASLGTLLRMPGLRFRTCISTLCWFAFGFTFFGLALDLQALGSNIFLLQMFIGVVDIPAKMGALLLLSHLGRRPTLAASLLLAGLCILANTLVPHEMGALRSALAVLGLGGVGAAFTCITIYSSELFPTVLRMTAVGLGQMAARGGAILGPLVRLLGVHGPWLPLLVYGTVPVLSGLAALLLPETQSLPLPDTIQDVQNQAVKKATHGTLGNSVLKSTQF
Procedure: The IC50 values of the compounds in inhibiting uric acid reabsorption were determined using MDCK (canine kidney cell) cell line stably transfected with DRAT-1 (uric acid transporter) gene.
DRAT-1 (MDCK) cell line: MDCK cells stably transfected with URAT-1 gene.
Cell culture medium: MEM (minimum essential medium Eagle) medium supplemented with 10% FBS (fetal bovine serum), 1% sodium pyruvate and 250 μg/mL G418 (geneticin).
1) The supernatant of the cell culture medium was removed by aspiration and the cells were rinsed with 10 mL PBS (phosphate buffered saline solution).
2) Preheated trypsin was added into the rinsed cell culture flask, and then the flask was rotated to make the trypsin evenly cover the bottom of the flask and the cells were digested at room temperature.
3) 10-15 mL of culture medium was used to suspend the cells in each T150 flask. 0.1 mL of the cells was sucked out and 2-fold diluted with trypan blue solution, and then the cells were counted. […]
^14C labelled-uric acid solution was diluted and added into the cell plate to obtain a final concentration of 50 μM. […] After adding the scintillation liquid, the signal was read in a liquid scintillation counter Tri-Carb.
According to the luminescent data, the inhibitory effect of the compounds on URAT-1 was analyzed, and the percent inhibition was calculated. […]

[11] = Solid stability test of the crystal form A of compound 1; assay type: physicochemical; details: high temperature, high humidity and strong light
From the text: Samples placed under high temperature and high humidity conditions were sealed with aluminum foil paper and small holes were punched in the aluminum foil paper to ensure that the sample could fully contact with ambient air; samples placed under strong light conditions were sealed with threaded caps. The samples placed under different conditions were sampled and tested on the 5th day and 10th day (XRPD and HPLC), and the test results were compared with the initial test results obtained on day 0.

OAT-4 = biological target: T2, OAT-4 (Homo sapiens, UniProt Q9NSA0); assay: Inhibition of substrate uptake in MDCK cells overexpressing OAT-4; assay type: cell-based; details: MDCK-OAT4 cells
T2 construct: expressed in transfected cells; host or cells: MDCK (canine kidney) cells; the empty-vector control is pcDNA3.1
T2 sequence (Q9NSA0 1-550): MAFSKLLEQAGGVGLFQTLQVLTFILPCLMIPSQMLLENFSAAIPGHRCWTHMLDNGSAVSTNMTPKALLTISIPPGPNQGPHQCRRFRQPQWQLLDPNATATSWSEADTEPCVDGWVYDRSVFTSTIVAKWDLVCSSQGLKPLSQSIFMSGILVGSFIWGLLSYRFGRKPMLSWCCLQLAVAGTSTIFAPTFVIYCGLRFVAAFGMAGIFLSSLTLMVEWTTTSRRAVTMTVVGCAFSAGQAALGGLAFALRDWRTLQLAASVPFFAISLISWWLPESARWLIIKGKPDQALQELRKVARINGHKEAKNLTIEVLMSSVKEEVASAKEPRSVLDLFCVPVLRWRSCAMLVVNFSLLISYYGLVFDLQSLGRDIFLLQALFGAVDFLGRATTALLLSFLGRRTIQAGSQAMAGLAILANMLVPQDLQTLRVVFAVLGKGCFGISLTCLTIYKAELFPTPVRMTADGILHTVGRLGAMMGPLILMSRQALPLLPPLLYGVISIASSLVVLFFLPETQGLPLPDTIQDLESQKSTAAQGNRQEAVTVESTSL
Procedure: The IC50 values of the compounds in inhibiting reabsorption of specific substrates were determined using MDCK (canine kidney cell) cell line stably transfected with OAT-4 (organic anion transporter-4) gene.
The cell culture medium used in the intake inhibition experiment was DMEM (cell essential medium culture medium) supplemented with 10% FBS (containing penicillin and streptomycin). […] The cell suspensions were adjusted to obtain a density of 2.0-3.0×10^5 cells/mL with medium, and then inoculated into 24-well cell culture plates in an amount of 1 mL/well. The cells were cultured in an incubator with 5% CO2 and saturated air humidity at 37° C. for 2-3 days, after which the cells grew over the wells. […]
The uptake value of the transporter cells in the group containing only the radiolabeled substrate (deducting the uptake value U0 cells with empty vector in the background group) was defined as 100% (control, Uc), which was counted as a standard for the calculation of the percentage (%) of the intake value U (after deducting the background) in each administration group after adding the tested compounds against the intake value Uc in the control group, and the inhibitory rate (IR) of each concentration on the activity of the transporter was calculated to express the extent of the inhibitory effect of the compounds on the transporters. […]

[12] = male, cynomolgus monkey, plasma, po, 10 mg/kg, PO, 10 mg/kg
[13] = PO, 10 mg/kg, listed as Compound 1a (crystal form B)
[14] = male, cynomolgus monkey, plasma, iv, 2 mg/kg, IV, 2 mg/kg
[15] = IV, 2 mg/kg, listed as Compound 1b (crystal form C)
[16] = PO, 10 mg/kg, listed as Compound 1b (crystal form C)

Row | SMILES | UV area percentage (human liver cells) [%] | Area under the curve AUG0-inf ([1]; PO, 10 mg/kg) [µM·h] | Mean drug concentration in urine (0-24 h) Curine, 0-24 h ([1]; PO, 10 mg/kg) [µM] | half-life [1, 12] [h] | Cmax [1, 12] [µM] | MRT inf [1, 12] [h] | Tmax [1, 12] [h] | Metabolite detection (human liver cells) | Mutual transformation between the two axially chiral isomers in vivo [1] | Vd [1, 14] [L/kg] | clearance [1, 14] [L/h/kg] | half-life [1, 14] [h] | C0 [1, 14] [µM] | MRT inf [1, 14] [h] | IC50 (URAT-1) [µM] | also measured
1 | O=C(O)CSc1nnc(Br)n1-c1ccc(C2CC2)c2ccccc12 (racemic) [(±)-Lesinurad, lesinurad, reference compound] | 95.60 | 69.3 | 71.622 | 3.78 | 37.2 | 3.44 | 0.58 |  |  |  |  |  |  |  |  | Amount of lesinurad and metabolites (Total 100) [2]: 100%; Amount of lesinurad and metabolites (Total 100) [3]: 100%; Amount of lesinurad and metabolites (Total 100) [4]: 92.1%; Amount of lesinurad and metabolites (Total 100) [5]: 100%; Amount of lesinurad and metabolites (Total 100) (Liver cells [6]): 100%; Amount of lesinurad and metabolites (Total 100) (Liver cells [7]): 100%; Amount of lesinurad and metabolites (Total 100) (Liver cells [8]): 98.1%; Amount of lesinurad and metabolites (Total 100) (Liver cells [9]): 92.1%; Percentage of the administered dose ([10]; Faeces): 1.5%; Percentage of the administered dose ([10]; Urine): 31.3%
2 | O=C(O)CSc1nnc(Br)n1-c1c(Cl)cc(C2CC2)c2ccccc12 (single isomer, unassigned) [Compound 1a] | 100 |  |  | 4.1 | 22.6 | 4.65 | 1.33 | no metabolite was detected | no mutual transformation | 0.533 | 0.293 | 3.39 | 32 | 1.83 |  | Area under the curve AUG0-inf ([1]; IV, 2 mg/kg, listed as Compound 1a (crystal form B)): 15.709 µM·h; Area under the curve AUG0-inf [1, 13]: 89.77 µM·h; Bioavailability F [1, 13]: 132%; Mean drug concentration in urine (0-24 h) Curine, 0-24 h [1, 13]: 54.403 µM
3 | O=C(O)CSc1nnc(Br)n1-c1c(Cl)cc(C2CC2)c2ccccc12 (single isomer, unassigned) [Compound 1b] | 100 |  |  |  |  |  |  | no metabolite was detected | no mutual transformation |  |  |  |  |  | > 20 | Apparent volume of distribution Vdss [1, 15]: 0.661 L/kg; Area under the curve AUG0-inf [1, 15]: 16.092 µM·h; Clearance rate Cl [1, 15]: 0.287 L/h/kg; Half-life T1/2 [1, 15]: 4.28 h; Residence time MRT0-inf [1, 15]: 2.34 h; C0 ([1]; IV, 2 mg/kg, listed as Compound 1b (crystal form C), 2 mg/kg): 42.1 µM; Area under the curve AUG0-inf [1, 16]: 62.456 µM·h; Bioavailability F [1, 16]: 77.6%; Half-life T1/2 [1, 16]: 4.46 h; Residence time MRT0-inf [1, 16]: 5.74 h; Time to peak Tmax [1, 16]: 2.33 h; Cmax ([1]; PO, 10 mg/kg, listed as Compound 1b (crystal form C), 10 mg/kg): 13.2 µM; Mean drug concentration in urine (0-24 h) Curine, 0-24 h [1, 16]: 7.976 µM
4 | O=C(O)CSc1nnc(Br)n1-c1c(Cl)cc(C2CC2)c2ccccc12 [Compound 1] |  | 120.062 | 38.915 | 3.34 | 46.1 | 3.76 | 0.83 |  |  | 1.09 | 0.252 | 3.61 | 42.2 | 4.01 | 10.4 | Solid stability (conclusion) [11]: good stability; Area under the curve AUG0-inf ([1]; IV, 2 mg/kg): 18.389 µM·h; bioavailability ([1]; male, cynomolgus monkey, plasma, po, 10 mg/kg, PO, 10 mg/kg, read-out: Bioavailability F): 131%; IC50 (OAT-4; substrate 3H-estrone ammonium sulfate, read-out: IC50 of the inhibition on OAT-4 transporting 3H-ES (3H-estrone ammonium sulfate)): 17.1 µM; IC50 (OAT-4; substrate 14C-uric acid, read-out: IC50 of the inhibition on OAT-4 transporting 14C-UA (14C-uric acid)): 7.92 µM
